In PMC8066339, “Optimization of 2-Acylaminocycloalkylthiophene Derivatives for Activity against Staphylococcus aureus RnpA” (Antibiotics, 2021):
≈ marks a conversion by molar mass, not a printed value. Where “and” joins values, the source holds several entries; their conditions need not be identical. Equal entries are not always repeated. Entries after “also recorded” stand apart in the source; their conditions may differ. Where two headings read alike, the source gives them in different places.

Assays:
Assay type in all cases: cell-based, Staphylococcus aureus
S. aureus strain UAMS-1 = test: Minimum inhibitory concentration (MIC) testing, CLSI broth microdilution; settings: for MIC: Staphylococcus aureus, S. aureus strain UAMS-1, read-out: MIC
Procedure: Staphylococcus aureus strains UAMS-1 is a well-characterized antibiotic susceptible osteomyelitis clinical isolate (Blevins Infect. Immun 2003). For experiments, UAMS-1 was cultured in Mueller Hinton (MH) broth and processed as described below. Escherichia coli strain BL21 (DE3) was cultured in Luria–Bertani (LB) and supplemented with ampicillin (50 µg ml^−1) where indicated.
Minimum inhibitory concentration (MIC) was performed according to the Clinical and Laboratory Standards Institute (CLSI) guidelines. Briefly, individual wells of a 96-well microtiter plate were inoculated with 10^4 colony forming units (CFU) of S. aureus UAMS-1 containing two-fold increasing concentrations (0 µM to 100 µM) of the indicated antibiotic or putative RnpA inhibitor and grown at 37 °C for 16 h in MH broth. The MIC was defined as the lowest concentration of compound in which there was no visible bacterial growth detected by the unaided eye.

[1] = system: RnpA-mediated ptRNA processing; test: Cellular ptRNA^Tyr accumulation (qRT-PCR); settings: 0.5X MIC for 1 h, Figure 3 right
Procedure: To evaluate the effects of each analog on cellular RnpA-mediated ptRNA processing, S. aureus cells were treated with a sub-inhibitory concentration of each analog (0.5X MIC) and qRT-PCR was used to measure ptRNA^Tyr accumulation, as previously described. […] Compounds RNP0007, 11,13, 14, 15, and 16 had little effect on ptRNA^Tyr levels in the cellular context.
Cellular S. aureus tRNA^Tyr pools were measured as previously described. […] The culture was removed, combined with an equal volume of acetone:ethanol (1:1 v/v) and stored at −80 °C.
(§1) Cell suspensions in acetone:ethanol were thawed on ice and centrifuged at 1560× g for 10 min at 4 °C. Acetone:ethanol was decanted, and pellets were left to air-dry for 5 min. Cell pellets were resuspended in 500 µL ice-cold TE buffer (10 mM Tris-HCl, pH 8.0, 1mM EDTA) and transferred to FastPrep Lysing Matrix B tubes (MP Biomedicals, Santa Ana, CA). Mixtures were homogenized at 5 m∙s^−1 for 20 s, rested on ice for 5 min, then homogenized again at 4.5 m∙s^−1 for 20 s in a FastPrep-24 instrument. Cell lysates were centrifuged at 16,200× g for 15 min at 4 °C to remove cell debris. Total bacterial RNA and tRNA^Tyr populations were isolated from the supernatant using Qiagen RNeasy Mini kits and miRNeasy kits, respectively, following the manufacturer’s recommendations (Germantown, MD). For qRT-PCR, 2 µg of RNA substrate was treated with 2 units of DNase I (New England Biolabs, Ipswich, MA, USA) for 1 h at 37 °C and re-purified using Qiagen RNeasy Mini kits, following the manufacturer’s instructions. RNA was measured for concentration and quality using a NanoDrop spectrophotometer. Quantabio (Beverly, MA, USA) qScript cDNA Supermix was used to convert 200 ng of RNA into cDNA, following manufacturer’s instructions, which was subsequently amplified using Quantabio SYBR Green Fast Mix following manufacturer’s instructions. Fluorescence was read on the BioRad (Hercules, CA, USA) CFX 96 Connect Real Time Machine. Transcript levels were compared to the internal control 16S rRNA (ΔΔCt) and plotted as fold change compared to the control. The following primer pairs were used in this study for qRT-PCR: spa forward—[…]; spa reverse—[…]; –15 ptRNA^Tyr forward—[…]; tRNA^Tyr reverse—TGGTG GAGGGGGGCAGATTC; 16S rRNA forward—[…]; 16S rRNA reverse—[…].

[2] = system: RnpA-mediated mRNA turnover of spa mRNA; test: Cellular mRNA turnover assay (spa mRNA, qRT-PCR after rifampin arrest); settings: 0.5X MIC for 30 min, 0 and 5 min post-transcriptional arrest, Figure 3 left
Procedure: As a more direct measure of whether the antimicrobial effects were RnpA-dependent, studies were performed to measure their inhibition of cellular RnpA-mediated mRNA turnover of spa mRNA. The spa mRNA is a natural substrate of RnpA mRNA degradation, as previously described, and can be utilized for an intracellular readout of inhibition for RnpA-mediated mRNA turnover. To do so, S. aureus cells were treated with a sub-inhibitory concentration of compound (0.5X MIC) then challenged with the antibiotic rifampicin to arrest de novo RNA synthesis. Quantitative RT-PCR was used to measure the cellular titers of spa mRNA at 0 and 5 min post-transcriptional arrest.
S.aureus RNA half-life measurements were performed as described. […] To inhibit de novo RNA synthesis, rifampin (Alfa Aesar, Haverhill, MA, USA) was added to the culture at a final concentration of 200 µg mL^−1. Half of the culture was immediately removed and combined with an equal volume of ice-cold acetone:ethanol (1:1 v/v). The remainder of the culture was returned to the 37 °C incubator for an additional 5 min, then combined with an equal volume of ice-cold acetone:ethanol (1:1 v/v) and stored at −80 °C.
as §1

## O=C(Nc1cccc(Cl)c1)c1c(NC(=O)C(F)(F)F)sc2c1CCCCC2 [RNP0007]
S. aureus strain UAMS-1; UAMS1
  MIC: 0.391 µM and 0.16 µg/mL
[1]
  Cellular ptRNA^Tyr accumulation (in words): little effect

## O=C(Nc1cccc(C(F)(F)F)c1)c1c(NC(=O)C(F)(F)F)sc2c1CCCCC2 [RNP0011]
S. aureus strain UAMS-1; UAMS1
  MIC: 0.391 µM and 0.18 µg/mL
[2]
  Inhibition of cellular spa mRNA turnover (in words): moderate inhibitors
[1]
  Cellular ptRNA^Tyr accumulation (in words): little effect

## O=C(Nc1cccc(F)c1)c1c(NC(=O)C(F)(F)F)sc2c1CCCCC2 [RNP0008]
S. aureus strain UAMS-1; UAMS1
  MIC: 0.391 µM and 0.16 µg/mL
[2]
  Inhibition of cellular spa mRNA turnover (in words): weakest inhibitors
[1]
  Cellular ptRNA^Tyr accumulation (in words): largest increases

## O=C(Nc1ccc(C(F)(F)F)cc1)c1c(NC(=O)C(F)(F)F)sc2c1CCCCC2 [RNP0012]
S. aureus strain UAMS-1; UAMS1
  MIC: 0.19 µM and 0.086 µg/mL
S. aureus strain UAMS-1; compared with JR1
  Fold improvement in anti-staphylococcal activity (MIC) over JR1: 6.6 fold
[2]
  Inhibition of cellular spa mRNA turnover (in words): moderate inhibitors; also recorded: significantly reduced RnpA-associated mRNA degradation
[1]
  Cellular ptRNA^Tyr accumulation (in words): largest increases; also recorded: top-performing cellular ptRNA processing inhibitor

## O=C(Nc1ccc(F)cc1)c1c(NC(=O)C(F)(F)F)sc2c1CCCC2 [RNP0014]
S. aureus strain UAMS-1; UAMS1
  MIC: 6.25 µM and 2.4 µg/mL
[2]
  Inhibition of cellular spa mRNA turnover (in words): strongest stabilizers of mRNA
[1]
  Cellular ptRNA^Tyr accumulation (in words): little effect

## O=C(Nc1ccc(F)cc1)c1c(NC(=O)C(F)(F)F)sc2c1CCCCC2 [RNP0009]
S. aureus strain UAMS-1; UAMS1
  MIC: 0.78 µM and 0.32 µg/mL
[2]
  Inhibition of cellular spa mRNA turnover (in words): weakest inhibitors
[1]
  Cellular ptRNA^Tyr accumulation (in words): largest increases

## O=C(Nc1ccc(C(F)(F)F)cc1)c1c(NC(=O)C(F)(F)F)sc2c1CCCC2 [RNP0015]
S. aureus strain UAMS-1; UAMS1
  MIC: 0.78 µM and 0.34 µg/mL
S. aureus strain UAMS-1; matched molecular pairs
  Fold reduction of antimicrobial activity, six-membered vs seven-membered ring matched pair: fourfold less potent
[1]
  Cellular ptRNA^Tyr accumulation (in words): little effect

## O=C(Nc1cccc(F)c1)c1c(NC(=O)C(F)(F)F)sc2c1CCCC2 [RNP0013]
S. aureus strain UAMS-1; UAMS1
  MIC: 6.25 µM and 2.4 µg/mL
[1]
  Cellular ptRNA^Tyr accumulation (in words): little effect

## O=C(Nc1cccc(C(F)(F)F)c1)c1c(NC(=O)C(F)(F)F)sc2c1CCCC2 [RNP0016]
S. aureus strain UAMS-1; UAMS1
  MIC: 3.12 µM and 1.36 µg/mL
[2]
  Inhibition of cellular spa mRNA turnover (in words): strongest stabilizers of mRNA
[1]
  Cellular ptRNA^Tyr accumulation (in words): little effect

## Cc1cccc(NC(=O)c2c(NC(=O)C(F)(F)F)sc3c2CCCCC3)c1 [RNP0010]
S. aureus strain UAMS-1; UAMS1, 16 h
  MIC: 3.21 µM (≈ 1.27 µg/mL)
S. aureus strain UAMS-1; UAMS1
  MIC: 3.12 µM and 1.24 µg/mL
[2]
  Inhibition of cellular spa mRNA turnover (in words): strong inhibitor
[1]
  Cellular ptRNA^Tyr accumulation (in words): largest increases
